Data: patent US20090137527A1, “Compositions and methods for modulating immune function” (Resolvyx Pharmaceuticals, Inc., priority 2007, published 2009)

Test system: lymph node cells from collagen-induced arthritis rats
Assay: Ex vivo cytokine production in lymph node cells from CIA rats treated with compound
Set-up: species or system rat
Method: Female Lewis rats were anesthetized with 3-5% isoflurane and arthritis was induced by intradermal injection of 0.3 mL (100 μL at three different sites) of an emulsion […] 1.5 mg/mL of type II bovine collagen, CII (Elastin Products Inc., Cat# CM276), in incomplete Freund's adjuvant (IFA) at the base of the tail on day 0 and 6. Control rats were injected with an equal amount of IFA only.
were measured under two different treatment regimens. In the first (prophylactic) treatment regimen, Compound X was administered i.v., twice daily, at 0.3 mg/kg from day 0 to day 6 or 10. For ex vivo studies, animals were euthanized on day 6 after the last injection and their inguinal lymph nodes were harvested. […] For ex vivo studies, animals were euthanized on day 16 and inguinal lymph nodes were harvested. Venous blood samples were collected during the course of treatment. For CD3 activation, 96-well flat bottom plates were coated with anti-CD3 mAb (eBioscience, clone G4.18) 1 μg/mL. Plates were stored overnight at 4° C., and were subsequently rinsed with PBS once before use. Bovine Type II collagen for tissue culture was purchased from Chondrex (Cat# 2022) and was reconstituted according to the manufacturer's instructions. All data were processed and analyzed by t-test using GraphPad Prism software.
Treatment regimen one was used (n=3). Animals were treated with Compound X from day 0 to day 6, were sacrificed on day 6, and freshly harvested lymph nodes were pressed through a nylon strainer (BD Falcon Cat# 352340) to obtain a single cell suspension. Cells were washed and resuspended in RPMI 1640/10% FCS at 4×10^6/mL. In U-bottom 96-well plates, 100 μL or 4×10^5 cells and 100 μL of collagen at 25 or 50 μg/mL final concentrations were added. Plates were incubated in a 37° C., 5% CO2 incubator overnight. Supernatants were harvested, and rat cytokines were measured with Bioplex (BioRad).
In FIG. 2A, animals were given compound X from Day 0 to Day 6 (treatment regimen one). In FIG. 2B, animals were given compound X from day 8 to day 16 (treatment regimen two).
In FIG. 3A, animals were given compound X from Day 0 to Day 6 (treatment regimen one). In FIG. 3B, animals were given compound X from day 8 to day 16 (treatment regimen two). Freshly harvested lymph nodes were pressed through a nylon strainer (BD Falcon Cat# 352340) to obtain a single cell suspension. Cells were washed and resuspended in RPMI 1640/10% FCS at 4×10^6/mL. To anti-CD3 coated plates were added 4×10^5 cells per well and 100 μL RPMI 1640/10% FCS media. The plates were incubated in a 37° C., 5% CO2 incubator for three days (FIG. 3A) or overnight (FIG. 3B). Rat IL-17 was measured with a kit from Millipore (Cat# RCYTO-18K-01) following the manufacturer's instructions.

[1] = two treatment regimens: day 0 to day 6, or day 8 to day 16, 0.3 mg/kg i.v. twice daily

CC[C@@H](O)/C=C/C=C\C[C@@H](O)/C=C/C=C/C=C\[C@@H](O)CCCC(=O)O [Compound X]
ex vivo IFN-γ and TNFα production in lymph node cells (0.3 mg/kg i.v. twice daily day 0 to day 6, collagen 25 or 50 μg/mL overnight): inhibited
reduction of collagen- or CD3-induced IFNγ, TNFα and IL-17 secretion from draining lymph node cells (treated animals compared to controls): 60-90%
ex vivo anti-CD3 mAb-induced IL-17 production in lymph node cells [1]: inhibited
ex vivo collagen-induced IFN-γ production in lymph node cells [1]: inhibited
